Test results from ChEMBL document CHEMBL1139128, “Structure-activity relationship analysis of a novel necroptosis inhibitor, Necrostatin-5” (Bioorg Med Chem Lett, 2007).
The source made the active and inactive calls. How the calls were made is not given here.

Test system: Jurkat
Test: Inhibition of TNF-alpha-induced necroptosis in FADD-deficient Jurkat T cells
Assay type: functional, cell-based
Parameters: concentration or dose not given beside the values
Conditions: for EC50: Jurkat

| SMILES | Activity (Homo sapiens) | Activity [%] | EC50 (Homo sapiens) [µM] |
| --- | --- | --- | --- |
| COc1ccc(-n2c(SCC(=O)O)nc3sc(C)c(C)c3c2=O)cc1 | inactive | – | – |
| COc1ccc(-n2c(SC)nc3sc4c(c3c2=O)CCCC4)c(OC)c1 | inactive | – | – |
| Cc1sc2nc(SCC#N)n(-c3ccc(OCc4ccccc4)cc3)c(=O)c2c1C | inactive | – | – |
| CCSc1nc2sc3c(c2c(=O)n1-c1ccc(OC)cc1)CCC3 | inactive | – | – |
| N#CCSc1nc2sc3c(c2c(=O)n1-c1ccc(Cl)cc1)CCCC3 | – | 55 | 8.5 |
| N#CCSc1nc2sc3c(c2c(=O)n1-c1ccc(OC(F)(F)F)cc1)CCC3 | – | 70 | 3.7 |
| COc1ccc(-n2c(SC)nc3sc4c(c3c2=O)CC(C)CC4)cc1OC (configuration not stated) | inactive | – | – |
| Cc1sc2nc(SCC#N)n(-c3ccc(OC(F)(F)F)cc3)c(=O)c2c1C | – | 63 | 3.7 |
| CCc1sc2nc(SCC#N)n(-c3ccc(OC)cc3)c(=O)c2c1C | – | 86.8 | 5.26 |
| Cc1ccc(-n2c(SCC#N)nc3sc4c(c3c2=O)CCCC4)cc1C | – | 45 | 16.7 |
| COc1ccc(-n2c(SC)nc3sc4ccccc4c3c2=O)cc1 | – | 77 | 0.24 |
| COc1ccc(-n2c(SC(=O)c3ccccc3)nc3sc4c(c3c2=O)CCCC4)cc1 | inactive | – | – |
| COc1ccc(-n2c(SC)nc3sc(C(C)C)c(C)c3c2=O)cc1 | inactive | – | – |
| CSc1nc2sc3c(c2c(=O)n1-c1ccc2c(c1)OCO2)CCCC3 | inactive | – | – |
| COc1ccc(-n2c(SCC#N)nc3sc(C)c(C)c3c2=O)cc1 | – | 100 | 0.45 |
| CCc1sc2nc(SCC#N)n(-c3ccc(F)cc3)c(=O)c2c1C | inactive | – | – |
| COc1ccc(-n2c(SCC(C)=O)nc3sc4c(c3c2=O)CCC4)cc1 | inactive | – | – |
| CSc1nc2sc3c(c2c(=O)n1-c1ccc2c(c1)OCO2)CCC3 | inactive | – | – |
| CSc1nc2sc3c(c2c(=O)n1-c1ccc(F)cc1)CCCCC3 | inactive | – | – |
| COc1ccc(-n2c(SCCO)nc3sc(C)c(C)c3c2=O)cc1 | – | 78 | 7.26 |
| N#CCSc1nc2sc3c(c2c(=O)n1-c1ccc2c(c1)OCO2)CCCC3 | – | 100 | 0.89 |
| CCSc1nc2sc3c(c2c(=O)n1-c1ccccc1)CCCCC3 | inactive | – | – |
| COc1ccc(-n2c(SC)nc3sc4c(c3c2=O)CCCC4)cc1 | – | 71 | 0.24 |
| Cc1sc2nc(SCC#N)n(-c3ccc4c(c3)OCO4)c(=O)c2c1C | – | 100 | 1.65 |
| COc1ccc(-n2c(SCc3ccc(C)cc3)nc3sc4c(c3c2=O)CCCC4)cc1 | inactive | – | – |
| CSc1nc2sccc2c(=O)n1-c1ccccc1 | inactive | – | – |

| SMILES | Activity (Homo sapiens) | Activity [%] | EC50 (Homo sapiens) [µM] |
| --- | --- | --- | --- |
| COc1ccc(-n2c(SC)nc3sc4c(c3c2=O)CN(C(C)C)CC4)cc1 | inactive | – | – |
| CCCCCSc1nc2sc3c(c2c(=O)n1-c1ccc(OC)cc1)CCCC3 | inactive | – | – |
| N#CCSc1nc2sc3c(c2c(=O)n1-c1ccc2c(c1)OCCO2)CCCC3 | – | 100 | 0.22 |
| COc1ccc(-n2c(SCC#N)nc3sc(C)cc3c2=O)cc1 | inactive | – | – |
| CCOc1ccc(-n2c(SC)nc3sc4c(c3c2=O)CCC4)cc1 | inactive | – | – |
| CN(C)c1ccc(-n2c(SCC#N)nc3sc4ccccc4c3c2=O)cc1 | inactive | – | – |
| CSc1nc2sc3c(c2c(=O)n1-c1ccc(OCc2ccccc2)cc1)CCCC3 | inactive | – | – |
| CSc1ccc(-n2c(SCC#N)nc3sc4c(c3c2=O)CCCC4)cc1 | – | 70 | 2.33 |
| CCCCCCCCCCCCCCc1sc2nc(SC)n(-c3ccc(OC)cc3)c(=O)c2c1C | inactive | – | – |
| CCOc1ccc(-n2c(SCC#N)nc3sc4c(c3c2=O)CCC4)cc1 | inactive | – | – |
| COc1ccc(-n2c(SCC#N)nc3sc4c(c3c2=O)CCCC4)c(OC)c1 | inactive | – | – |
| Cc1ccc(-n2c(SCC#N)nc3sc4c(c3c2=O)CCC4)cc1C | inactive | – | – |
| C#CCSc1nc2sc3c(c2c(=O)n1-c1ccc(OC)cc1)CCCCC3 | inactive | – | – |
| CCc1c(C)sc2nc(SC)n(-c3ccc4c(c3)OCO4)c(=O)c12 | inactive | – | – |
| COc1ccc(-n2c(SC)nc3sc4c(c3c2=O)CCCC4)cc1OC | – | 54.5 | 16.7 |
| N#CCSc1nc2sc3ccccc3c2c(=O)n1-c1ccc(F)cc1 | – | – | 3.06 |
| COc1ccc(-n2c(SCC#N)nc3sc4c(c3c2=O)CC(C)CC4)cc1 (configuration not stated) | inactive | – | – |
| CCSc1nc2sc3c(c2c(=O)n1-c1ccc(OC)cc1)CCCC3 | inactive | – | – |
| CCN1CCc2sc3nc(SC)n(-c4ccccc4)c(=O)c3c2C1 | inactive | – | – |
| CCCc1sc2nc(SCC#N)n(-c3ccc(OC)cc3)c(=O)c2c1C | inactive | – | – |
| COc1ccc(-n2c(SC)nc3sc4c(c3c2=O)CCC4)cc1 | – | 97 | 0.24 |
| C=CCSc1nc2sc3c(c2c(=O)n1-c1ccc(OC)cc1)CCCC3 | inactive | – | – |
| CCOc1ccc(-n2c(SCC#N)nc3sc4c(c3c2=O)CCCC4)cc1 | – | 83.8 | 0.55 |
| Cc1ccc(-n2c(SCC#N)nc3sc(C)c(C)c3c2=O)cc1C | – | 90.7 | 2.79 |
| CCOc1ccc(-n2c(SC)nc3sc4ccccc4c3c2=O)cc1 | inactive | – | – |
| COC(=O)CSc1nc2sc3c(c2c(=O)n1-c1ccc(OC)cc1)CCCC3 | inactive | – | – |

| SMILES | Activity (Homo sapiens) | Activity [%] | EC50 (Homo sapiens) [µM] |
| --- | --- | --- | --- |
| Cc1cc(Cl)ccc1-n1c(SCC#N)nc2sc3c(c2c1=O)CCCC3 | inactive | – | – |
| CSc1nc2sc(C)c(C)c2c(=O)n1-c1ccc(OCc2ccccc2)cc1 | inactive | – | – |
| C#CCSc1nc2sc(CCC)c(C)c2c(=O)n1-c1ccc(OC)cc1 | inactive | – | – |
| C=CCSc1nc2sc3c(c2c(=O)n1-c1ccccc1)CCCC3 | inactive | – | – |
| CCCC(=O)Sc1nc2sc3c(c2c(=O)n1-c1ccc(OC)cc1)CCCC3 | inactive | – | – |
| O=c1c2c3c(sc2nc(SCc2ccc([N+](=O)[O-])cc2)n1-c1ccccc1)CCCC3 | inactive | – | – |
| CCSc1nc2sc(CC)c(C)c2c(=O)n1-c1ccc(OC)cc1 | inactive | – | – |
| CSc1nc2sc3ccccc3c2c(=O)n1-c1ccc(F)cc1 | – | – | 3.06 |
| COc1ccc(-n2c(SC(C)=O)nc3sc4c(c3c2=O)CCCC4)cc1 | inactive | – | – |
| CSc1nc2sc3c(c2c(=O)n1-c1ccc(OC(F)(F)F)cc1)CCC3 | inactive | – | – |
| C#CCSc1nc2sc(CC)c(C)c2c(=O)n1-c1ccc(OC)cc1 | inactive | – | – |
| Cc1ccc(-n2c(SCC#N)nc3sc4c(c3c2=O)CCCC4)cc1 | – | 48.6 | 1.8 |
| C#CCSc1nc2scc(C)c2c(=O)n1-c1ccc(OC)cc1 | inactive | – | – |
| Cc1ccccc1-n1c(SCC#N)nc2sc3c(c2c1=O)CCCC3 | inactive | – | – |
| COc1ccccc1-n1c(SCC#N)nc2sc3c(c2c1=O)CCCC3 | – | 51.2 | 17.8 |
| CCc1sc2nc(SC)n(-c3ccc(OC)cc3)c(=O)c2c1C | inactive | – | – |
| COc1ccc(-n2c(SCC(=O)O)nc3sc4c(c3c2=O)CCCC4)cc1 | inactive | – | – |
| COc1ccc(-n2c(SCC#N)nc3sc4c(c3c2=O)CCCC4)cc1OC | – | 57 | 5.7 |
| CCSc1nc2sc3c(c2c(=O)n1-c1ccc(OC)cc1)CCCCC3 | inactive | – | – |
| COc1ccc(CSc2nc3sc4c(c3c(=O)n2-c2ccc(OC)cc2)CCCC4)cc1 | inactive | – | – |
| C#CCSc1nc2sc(C)c(C)c2c(=O)n1-c1ccc2c(c1)OCO2 | inactive | – | – |
| C#CCSc1nc2sc(CC)c(C)c2c(=O)n1-c1ccc2c(c1)OCO2 | inactive | – | – |
| N#CCSc1nc2sc3c(c2c(=O)n1-c1ccc(OC(F)(F)F)cc1)CCCC3 | inactive | – | – |
| CCN1CCc2sc3nc(SC)n(-c4ccc(OC)cc4)c(=O)c3c2C1 | inactive | – | – |
| CSc1nc2sc(C)c(C)c2c(=O)n1-c1ccc(C)c(C)c1 | inactive | – | – |
